# Reference: article PMC7957516, “Biochemical Properties of Tyrosinase from Aspergillus terreus and Penicillium copticola; Undecanoic Acid from Aspergillus flavus, an Endophyte of Moringa oleifera, Is a Novel Potent Tyrosinase Inhibitor” (Molecules, 2021)
# How the values were obtained:
# [1] = target: T1, tyrosinase from A. terreus; conditions: 50 mM L-tyrosine, Tris-HCl pH 7.0, 37 °C; 2 h preincubation with inhibitor at 30 °C
# T1 construct: gene TYR
# [2] = target: T2, tyrosinase from P. copticola; conditions: 50 mM L-tyrosine, Tris-HCl pH 7.0, 37 °C; 2 h preincubation with inhibitor at 30 °C; P. copticola not named in the value sentence, inferred as the second of the two enzymes
# T2 construct: gene TYR
compound,measurement,setting,value
O=c1cc(CO)occ1O [kojic acid],IC50,[1],21.5 µg/mL
same,IC50,[2],15.1 µg/mL
